Test results: patent EP0443518A2, “Pharmaceutical containing episialo complex carbohydrate” (MECT CORPORATION, priority 1990, dated 1991)
“Also recorded” adds a separate entry of the source.

Experiments:
[1] = system: sera derived from C57BL/6 female mice (9 weeks old) implanted with B16 melanoma cells; assay: ELISA: reactivity of serum of tumor-implanted mice with gangliosides; type: binding, mouse; conditions: for Reactivity of mouse serum: sera of mice implanted with B16 melanoma cells, 2 weeks after implantation, 100 ng ganglioside per well, absorbance at 490 nm, Fig. 2
Method: (§1) A serum was obtained by clotting of blood which was collected from a mouse retroorbitally (eyeground method) and removing the clotted blood by centrifugation.
(§2) ELISA assay was conducted by the conventional method.
(§3) 100 ng of each ganglioside dissolved in ethanol was added to each well of a 96-well microtiter plate and then allowed to stand at 37°C to remove ethanol completely. A blocking solution comprising a phosphate buffer solution (PBS) containing 5% of bovine serum albumin (BSA) or the like was added to the wells and the plate was incubated at 37°C for 2 hours. After the blocking solution was removed, the collected mouse serum was added to each well and the plate was incubated at 37°C for 1 hour. Each well was washed with a phosphate buffer solution containing 1% of BSA. Anti-mouse IgG, IgM and IgA antibodies which were labeled with peroxidase were added to each well and the plate was incubated at 37°C for 1 hour. Each well was washed with a phosphate buffer solution containing 1% of BSA. A substrate solution containing 400 µg/ml of o-phenylenediamine and 0.001% of hydrogen peroxide was added to each well, and the reaction was conducted at room temperature for 15 minutes. 8N sulfuric acid was added to stop the reaction and then the absorbance of the reaction mixture in each well was measured at 490 nm by using a spectrophotometer for a microtiter plate.
In Fig. 2, ●, △, ▲ and □ show the data with respect to a serum derived from a tumor the diameter of which is 5 mm or less, 6 mm, 8 mm and 16 mm, respectively.
Values shown in Fig. 1 and Fig. 2 were obtained by subtracting background values and taking the average of three wells.
Values shown in Fig. 3 were obtained by subtracting background values and taking the average of three wells.

[2] = system: normal sera derived from C57BL/6 femal mice; assay: ELISA: reactivity of normal mouse serum with gangliosides; type: binding; conditions: C57BL/6 female mice 9 weeks old, 100 ng ganglioside per well, absorbance at 490 nm, Fig. 1
Method: as §1, §2
as §3, with “plate. […]” for “plate.”

[3] = system: reactivity of mouse serum with epiGM₃; assay: ELISA: inhibition by acetylneuraminic acid of the reactivity of mouse serum with epiGM₃; type: binding; conditions: sodium N-acetylneuraminate solutions of various concentration added to serum of tumor-implanted mouse; Fig. 4
Method: as §3
Sodium N-acetylneuraminate solutions of various concentration were added to the same sera of mice as those used in the above (2). Values shown in Fig. 4 were obtained by subtracting background values and taking the average of three wells. […]

Compound: CCCCCCCCCCCCCC=CC(O)C(COC1OC(CO)C(OC2OC(CO)C(O)C(OC3(C(=O)O)CC(O)C(NC(C)=O)C(C(O)C(O)CO)O3)C2O)C(O)C1O)NC(=O)CCCCCCCCCCCCCCCCCCCCCCC (stereo not shown) [GM₃, reference compound]
- Reactivity of mouse serum [1]: did not react
- Reactivity of mouse serum [2]: did not react

Compound: CC(=O)N[C@H]1[C@H]([C@H](O)[C@H](O)CO)OC(O)(C(=O)O)C[C@@H]1O (stereo partly shown) [N-acetylneuraminic acid]
- Inhibition of the reactivity of mouse serum with epiGM₃ [3]: inhibited

Compound: CCCCCCCCCCCCCC=CC(O)C(COC1OC(CO)C(OC2OC(CO)C(O)C(OC3(C(=O)O)CC(O)C(NC(C)=O)C(C(O)C(O)CO)O3)C2O)C(O)C1O)NC(=O)CCCCCCCCCCCCCCCCCCCCCCC (stereo not shown) [epiGM₃]
- reaction level / reactivity compared with sera derived from normal mice ([1]; sera of mice implanted with B16 melanoma cells versus normal sera, Fig. 2 versus Fig. 1): remarkably increased; also recorded: stronger
- Reactivity of mouse serum [1]: reacted
- reactivity (rank among GM₃, epiGM₃, GM₄, epiGM₄, GM₅ and epiGM₅) ([1]; serum of the mouse with a 6 mm tumor, diluted 200 times, Fig. 3): strongest
- Reactivity of mouse serum [2]: reacted
